Reference: publication PMC1950546 (Nucleic Acids Research, 2007)
Where a SMILES comes first, the peptide text is derived from it.

What was measured:
PrrC = conditions: stated in the introduction; cited from earlier work
[1] = biological target: T1, PrrC anticodon nuclease (ACNase), His6-tagged D222E mutant (Escherichia coli, UniProt P17223, D222E); assay: ACNase assay: inhibition of PrrC-catalyzed cleavage of tRNA^Lys or ASL analogs; type: biochemical
T1 sequence (P17223 1-396 D222E): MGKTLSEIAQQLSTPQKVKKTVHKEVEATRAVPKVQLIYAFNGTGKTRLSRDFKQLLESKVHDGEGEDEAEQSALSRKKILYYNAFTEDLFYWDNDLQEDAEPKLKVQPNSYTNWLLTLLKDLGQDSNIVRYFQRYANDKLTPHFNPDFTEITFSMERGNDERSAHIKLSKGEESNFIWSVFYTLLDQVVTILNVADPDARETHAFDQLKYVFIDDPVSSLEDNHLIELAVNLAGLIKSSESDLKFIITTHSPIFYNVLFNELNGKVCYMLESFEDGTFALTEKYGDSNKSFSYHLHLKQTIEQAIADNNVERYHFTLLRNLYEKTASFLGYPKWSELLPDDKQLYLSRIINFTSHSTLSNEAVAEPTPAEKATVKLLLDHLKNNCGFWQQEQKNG

Row | Compound | Affinity for PrrC (range) (PrrC) | IC50 [1] [µM]
1 | Nc1ncnc2c1ncn2[C@@H]1O[C@H](COP(=O)(O)OP(=O)(O)OP(=O)(O)O)[C@@H](O)[C@H]1O [ATP] | mM-range | –
2 | Nc1nc2c(ncn2[C@@H]2O[C@H](COP(=O)(O)OP(=O)(O)OP(=O)(O)O)[C@@H](O)[C@H]2O)c(=O)[nH]1 [GTP] | mM-range | –
3 | CC(=O)N[C@@H](CCCCN)C(=O)N[C@@H](Cc1ccc(O)cc1)C(=O)NCC(=O)N[C@@H](CC(=O)O)C(=O)N[C@@H](CO)C(=O)N[C@@H](CC(N)=O)C(=O)N[C@@H](CCCCN)C(=O)N[C@@H](CO)C(=O)N[C@@H](Cc1ccccc1)C(=O)N[C@@H](CO)C(=O)N[C@@H](Cc1ccc(O)cc1)C(N)=O [LARP, Ac-KYGDSNKSFSY-NH2] (Ac-KYGDSNKSFSY-NH2) | – | ~100
